Source: patent US7166597B2, “Fused pyrazole derivatives being protein kinase inhibitors” (Glaxo Group Limited, priority 2000, dated 2007)
Where two headings read alike, the source gives them in different places.

Assays:
p38 kinase = target: T1, p38 kinase (Homo sapiens, UniProt Q16539); assay: p38 Kinase Assay; format: biochemical
T1 construct: GST (N); made in house; host or cells: E. coli
Method: The peptide substrate used in the p38 assay was biotin-IPTSPITTTYFFFRRR-amide. The p38 and MEK6 proteins were purified to homogeneity from E. coli expression systems. The fusion proteins were tagged at the N-terminus with Glutathione-S-Transferase (GST). The maximum activation was achieved by incubating 20 uL of a reaction mixture of 30 nM MEK6 protein and 120 nM p38 protein in the presence of 1.5 uM peptide and 10 mM Mg (CH3CO2)2 in 100 mM HEPES7 pH 7.5, added to 15 uL of a mixture of 1.5 uM ATP with 0.08 uCi [g-^33P]ATP, with or without 15 uL of inhibitor in 6% DMSO. The controls were reactions in the presence (negative controls) or absence (positive controls) of 50 mM EDTA. Reactions were allowed to proceed for 60 min at room temperature and quenched with addition of 50 uL of 250 mM EDTA and mixed with 150 uL of Streptavidin SPA beads (Amersham) to 0.5 mg/reaction. The Dynatech Microfluor white U-bottom plates were sealed and the beads were allowed to settle overnight. The plates were counted in a Packard TopCount for 60 seconds. IC50 values were obtained by fitting raw data to % I=100*(1−(I−C2)/(C1−C2)), where I was […], C1 was positive control, and C2 was negative control.

[1] = tested on: TNF release from human peripheral blood mononuclear cells (PBMNC); assay: Cell Based Assay for Cytokines Production in PBMNC (TNF release after LPS); settings: PBMC, read-out: TNF/PBMNC (inhibition of TNF release from human PBMNC following stimulation with LPS, IC50)
Method: Cell Based Assay for Cytokines Production in PBMNC
Human peripheral blood mononuclear cells were isolated from heparinized blood by LSM (Organon Teknika) from volunteer donors. Purified human peripheral blood mononuclear cells were then suspended at a concentration of 2×10^6 cells/ml in RPMI 1640 medium supplemented with 10% heat-inactivated FBS and 1% antibiotics. Aliquots of 100 μl (2×10^5 cells) were added to 96-well microliter plates. Test compounds at […] dose ranges (final-DMSO concentration in culture medium was 0.1%) were then added to the cells for 10–15 minutes before the addition of lipopolysaccharide (1 ng/ml). After incubation at 37° C. in a 5% CO2 incubator for 18–20 h, cell free supernatants were collected by centrifugation at 800 g. The supernatant was then assayed for the amount of TNFα and IL-1β by using Quantikine immunoassay kits developed by R&D Systems (Minneapolis, Minn.).

[2] = target: T2, JNK3 kinase (Jnk-3alpha-2) (Homo sapiens, UniProt P53779); assay: JNK3 Kinase Assay; format: biochemical; settings: Table 9; read-out: JNK3 IC50
T2 construct: Jnk-3alpha-2 (as a truncated construct, residues 39 to 224) was expressed in E. coli as a GST fusion protein; Following purification the GST portion was removed by thrombin cleavage; fused on or other part: An N-terminal GST tag was used for expression and removed by thrombin cleavage before the assay
Method: JNK3 Kinase Assay Jnk-3alpha-2 (as a truncated construct, residues 39 to 224) was expressed in E. coli as a GST fusion protein. Following purification the GST portion was removed by thrombin cleavage. The enzyme was stored at −80° C. Substrate c-Jun was expressed as a GST fusion protein including a signal peptide (biotinylation site) in E. coli. Following purification the substrate was biotinylated on a specific lysine in the signal peptide using biotin ligase. Prior to assay Jnk-3 was pre-activated by incubation with MgATP. The enzyme (10 nM) was screened in 40 mM HEPES (pH 7.4), 150 mM NaCl, 20 mM glycerophosphate, 1 mM DTT, 0.2 mM vanadate, 200 nM biotin-c-Jun, 5 mM MgCl2 and 10 uM ATP. Inhibitors were added over a conc range of from 0 to 10 uM in DMSO (fc 3%). The reaction was stopped by the addition of 25 mM EDTA. Phospho-c-Jun was detected using homogeneous time resolved fluorescence (HTRF) with a Eu-labelled antiphosphoserine (Serine 73) and streptavidin APC.

[3] = Table 9, p38 assays using Assay II, read-out: p38 IC50

T2 sequence (P53779 39-402 limits assumed): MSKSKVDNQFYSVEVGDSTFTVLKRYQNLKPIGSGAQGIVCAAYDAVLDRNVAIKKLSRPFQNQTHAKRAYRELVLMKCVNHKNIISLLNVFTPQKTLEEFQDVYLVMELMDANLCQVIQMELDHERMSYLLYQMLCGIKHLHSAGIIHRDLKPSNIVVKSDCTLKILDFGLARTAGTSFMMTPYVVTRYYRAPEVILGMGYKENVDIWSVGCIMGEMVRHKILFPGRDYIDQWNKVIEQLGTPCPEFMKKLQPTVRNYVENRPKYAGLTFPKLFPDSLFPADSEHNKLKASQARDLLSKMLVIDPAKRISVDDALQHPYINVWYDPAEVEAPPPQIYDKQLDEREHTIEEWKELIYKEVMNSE
T1 sequence (Q16539 whole entry): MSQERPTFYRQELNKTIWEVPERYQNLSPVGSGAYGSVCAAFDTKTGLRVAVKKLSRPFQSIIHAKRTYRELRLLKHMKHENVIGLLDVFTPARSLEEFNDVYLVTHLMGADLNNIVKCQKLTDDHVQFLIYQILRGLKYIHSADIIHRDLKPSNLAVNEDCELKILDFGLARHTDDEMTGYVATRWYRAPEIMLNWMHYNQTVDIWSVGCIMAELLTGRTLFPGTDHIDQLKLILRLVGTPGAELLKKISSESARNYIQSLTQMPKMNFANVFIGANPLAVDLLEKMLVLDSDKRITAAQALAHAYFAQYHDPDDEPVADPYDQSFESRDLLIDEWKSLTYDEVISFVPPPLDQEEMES

| IC50 (p38 kinase; [3]) | IC50 [2] | SMILES | also measured |
| --- | --- | --- | --- |
| 100 to 1000 nM | 100 to 1000 nM | Fc1ccc(-c2nn3cc(C(F)(F)F)ccc3c2-c2ccnc(NCCCN3CCCCC3)n2)cc1Cl [Example 113, N-{4-[2-(3-chloro-4-fluorophenyl)-6-(trifluoromethyl)pyrazolo[1,5-a]pyridin-3-yl]pyrimidin-2-yl}-N-(3-piperidin-1-ylpropyl)amine] |  |
| 100 to 1000 nM | 1000 to 10000 nM | Fc1ccc(-c2nn3cc(C(F)(F)F)ccc3c2-c2ccnc(NCCN3CCCCCC3)n2)cc1Cl [Example 116, N-(2-azepan-1-ylethyl)-N-{4-[2-(3-chloro-4-fluorophenyl)-6-(trifluoromethyl)pyrazolo[1,5-a]pyridin-3-yl]pyrimidin-2-yl}amine] |  |
| 100 to 1000 nM | 1000 to 10000 nM | FC(F)(F)c1ccc2c(-c3ccnc(NCCN4CCCCCC4)n3)c(-c3cccc(Cl)c3)nn2c1 [Example 117, N-(2-azepan-1-ylethyl)-N-{4-[2-(3-chlorophenyl)-6-(trifluoromethyl)pyrazolo[1,5-a]pyridin-3-yl]pyrimidin-2-yl}amine] |  |
| 10 to 100 nM | 100 to 1000 nM | Fc1ccc(-c2nn3cc(C(F)(F)F)ccc3c2-c2ccnc(NCCN3CCOCC3)n2)cc1Cl [Example 120, N-{4-[2-(3-chloro-4-fluorophenyl)-6-(trifluoromethyl)pyrazolo[1,5-a]pyridin-3-yl]pyrimidin-2-yl}-N-(2-morpholin-4-ylethyl)amine] |  |
| 100 to 1000 nM | 100 to 1000 nM | Fc1ccc(-c2nn3cc(C(F)(F)F)ccc3c2-c2ccnc(NCCCN3CCOCC3)n2)cc1Cl [Example 122, N-{4-[2-(3-chloro-4-fluorophenyl)-6-(trifluoromethyl)pyrazolo[1,5-a]pyridin-3-yl]pyrimidin-2-yl}-N-(3-morpholin-4-ylpropyl)amine] |  |
| 10 to 100 nM | 100 to 1000 nM | FC(F)(F)c1ccc2c(-c3ccnc(NCCCN4CCOCC4)n3)c(-c3cccc(Cl)c3)nn2c1 [Example 123, N-{4-[2-(3-chlorophenyl)-6-(trifluoromethyl)pyrazolo[1,5-a]pyridin-3-yl]pyrimidin-2-yl}-N-(3-morpholin-4-ylpropyl)amine] |  |
| 10 to 100 nM | 100 to 1000 nM | CN1CCN(CCCNc2nccc(-c3c(-c4ccc(F)cc4)nn4cc(C(F)(F)F)ccc34)n2)CC1 [Example 124, N-{4-[2-(4-fluorophenyl)-6-(trifluoromethyl)pyrazolo[1,5-a]pyridin-3-yl]pyrimidin-2-yl}-N-[3-(4-methylpiperazin-1-yl)propyl]amine] |  |
| 10 to 100 nM | 100 to 1000 nM | CN1CCN(CCCNc2nccc(-c3c(-c4ccc(F)c(Cl)c4)nn4cc(C(F)(F)F)ccc34)n2)CC1 [Example 125, N-{4-[2-(3-chloro-4-fluorophenyl)-6-(trifluoromethyl)pyrazolo-[1,5-a]pyridin-3-yl]pyrimidin-2-yl}-N-[3-(4-methylpiperazin-1-yl)propyl]amine] |  |
| 1000 to 10000 nM | 1000 to 10000 nM | CCCN1CCN(CCNc2nccc(-c3c(-c4ccc(C(F)(F)F)cc4)nn4cc(C(F)(F)F)ccc34)n2)CC1 [Example 127, N-[2-(4-propylpiperazin-1-yl)ethyl]-N-(4-{6-(trifluoromethyl)-2-[4-(trifluoromethyl)phenyl]pyrazolo[1,5-a]pyridin-3-yl}pyrimidin-2-yl)amine] |  |
| 10 to 100 nM | 100 to 1000 nM | CCCN1CCN(CCNc2nccc(-c3c(-c4ccc(F)c(Cl)c4)nn4cc(C(F)(F)F)ccc34)n2)CC1 [Example 128, N-{4-[2-(3-chloro-4-fluorophenyl)-6-(trifluoromethyl)pyrazolo-[1,5-a]pyridin-3-yl]pyrimidin-2-yl}-N-[2-(4-propylpiperazin-1-yl)ethyl]amine] |  |
| 10 to 100 nM | 100 to 1000 nM | CCCN1CCN(CCNc2nccc(-c3c(-c4cccc(Cl)c4)nn4cc(C(F)(F)F)ccc34)n2)CC1 [Example 129, N-{4-[2-(3-chlorophenyl)-6-(trifluoromethyl)pyrazolo[1,5-a]pyridin-3-yl]pyrimidin-2-yl}-N-[2-(4-propylpiperazin-1-yl)ethyl]amine] |  |

The remaining lines, values behind:

| SMILES | IC50 (p38 kinase; [3]) | IC50 [2] | also measured |
| --- | --- | --- | --- |
| Fc1ccc(-c2nn3cc(C(F)(F)F)ccc3c2-c2ccncc2)cc1 [Example 23, 2-(4-Fluorophenyl)-3-(4-pyridinyl)-6-(trifluoromethyl)pyrazolo[1,5-a]pyridine] |  |  | IC50 (p38 kinase; Table 7, compounds wherein Z is CH, read-out: P38 kinase (inhibition of p38 kinase, IC50)): < 500 nM; IC50 ([1]; Table 7, LPS stimulation): < 500 nM |
| Fc1ccc(-c2nn3ccccc3c2-c2ccnc(NCCc3cnc[nH]3)n2)cc1 [Example 80, 4-[2-(4-Fluorophenyl)pyrazolo[1,5-a]pyridin-3-yl]-N-[2-(1H-imidazol-5-yl)ethyl]-2-pyrimidinamine] |  |  | IC50 (p38 kinase; Table 8, compounds wherein Z is N, read-out: p38 kinase (inhibition of p38 kinase, IC50)): < 500 nM; IC50 ([1]; Table 8, LPS stimulation): < 500 nM |
| Fc1ccc(-c2nn3cc(C(F)(F)F)ccc3c2-c2ccnc(NCCN3CCCC3)n2)cc1Cl [Example 104, N-{4-[2-(3-chloro-4-fluorophenyl)-6-(trifluoromethyl)pyrazolo-[1,5-a]pyridin-3-yl]pyrimidin-2-yl}-N-(2-pyrrolidin-1-ylethyl)amine] | 100 to 1000 nM | 1000 to 10000 nM |  |
| FC(F)(F)c1ccc2c(-c3ccnc(NCCN4CCCC4)n3)c(-c3cccc(Cl)c3)nn2c1 [Example 105, N-{4-[2-(3-chlorophenyl)-6-(trifluoromethyl)pyrazolo[1,5-a]pyridin-3-yl]pyrimidin-2-yl}-N-(2-pyrrolidin-1-ylethyl)amine] | 100 to 1000 nM | 1000 to 10000 nM |  |
| FC(F)(F)c1ccc2c(-c3ccnc(NCCCCN4CCCC4)n3)c(-c3cccc(Cl)c3)nn2c1 [Example 106, N-{4-[2-(3-chlorophenyl)-6-(trifluoromethyl)pyrazolo[1,5-a]pyridin-3-yl]pyrimidin-2-yl}-N-(4-pyrrolidin-1-ylbutyl)amine] | 10 to 100 nM | 100 to 1000 nM |  |
| Fc1ccc(-c2nn3cc(C(F)(F)F)ccc3c2-c2ccnc(NCCN3CCCCC3)n2)cc1Cl [Example 109, N-{4-[2-(3-chloro-4-fluorophenyl)-6-(trifluoromethyl)pyrazolo[1,5-a]pyridin-3-yl]pyrimidin-2-yl}-N-(2-piperidin-1-ylethyl)amine] | 100 to 1000 nM | 1000 to 10000 nM |  |
| FC(F)(F)c1ccc2c(-c3ccnc(NCCN4CCCCC4)n3)c(-c3cccc(Cl)c3)nn2c1 [Example 110, N-{4-[2-(3-chlorophenyl)-6-(trifluoromethyl)pyrazolo[1,5-a]pyridin-3-yl]pyrimidin-2-yl}-N-(2-piperidin-1-ylethyl)amine] | 100 to 1000 nM | 1000 to 10000 nM |  |
| FC(F)(F)c1ccc(-c2nn3cc(C(F)(F)F)ccc3c2-c2ccnc(NCCCN3CCCCC3)n2)cc1 [Example 112, N-(3-piperidin-1-ylpropyl)-N-(4-{6-(trifluoromethyl)-2-[4-(trifluoromethyl)phenyl]pyrazolo[1,5-a]pyridin-3-yl}pyrimidin-2-yl)amine] | 1000 to 10000 nM | 1000 to 10000 nM |  |
